In US9771370B2, “Compounds for the inhibition of indoleamine-2,3-dioxygenase” (Merck Patent GmbH, priority 2014, dated 2017) one finds IC50 data, which are given here for 33 compounds.

pIC50: −log10 of the molar value. A value given as a limit tells only on which side of the number the result lay.

The target in this assay is Recombinant human IDO (Homo sapiens, UniProt P14902). Description: Bridge-IT tryptophan fluorescence assay of human IDO-1 inhibition. As to conditions: recombinant human IDO 7.5 nM, L-tryptophan. In kind it is biochemical. The gist of the method: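 One variant ran L-Trp at 100 μM for 90 min at 37 °C. The other pre-incubated compound for 30 min at 25 °C, then ran 50 μM L-Trp for 60 min at 25 °C.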
Sequence of Recombinant human IDO (P14902 whole entry): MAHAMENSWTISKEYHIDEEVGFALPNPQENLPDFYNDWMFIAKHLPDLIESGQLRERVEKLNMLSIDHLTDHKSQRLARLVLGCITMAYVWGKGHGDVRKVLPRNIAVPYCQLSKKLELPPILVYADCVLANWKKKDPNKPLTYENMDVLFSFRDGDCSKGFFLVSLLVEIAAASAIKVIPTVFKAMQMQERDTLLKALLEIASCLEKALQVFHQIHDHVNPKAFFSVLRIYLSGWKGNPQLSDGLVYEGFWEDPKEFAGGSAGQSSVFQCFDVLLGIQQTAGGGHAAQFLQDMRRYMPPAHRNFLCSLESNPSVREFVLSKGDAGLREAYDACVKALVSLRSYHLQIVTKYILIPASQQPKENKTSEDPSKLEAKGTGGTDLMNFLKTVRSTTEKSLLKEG
As to `OC(CC1c2ncccc2-c2cncn21)c1ccccc1` (stereo not drawn) [Compound 12b, 1-Phenyl-2-[4,6,9-triazatricyclo[6.4.0.0^[2,6]]dodeca-1(8),2,4,9,11-pentaen-7-yl]ethan-1-ol], the pIC50 is < 6.00.

Consider `OC(CC1c2nc(C3CC3)ccc2-c2cncn21)C1CCCCC1` (single isomer, unassigned) [Compound 56b, 1-cyclohexyl-2-[10-cyclopropyl-4,6,9-triazatricyclo[6.4.0.0^[2,6]]dodeca-1(8),2,4,9,11-pentaen-7-yl]ethan-1-ol], for which the negative logarithm of the IC50 (pIC50) is > 7.00.

Consider `OC1(C2CCC(F)(CCC3c4ccccc4-c4cncn43)CC2)CC1` (single isomer, unassigned) [Compound 60c, 1-[4-fluoro-4-[2-[5H-imidazo[4,3-a]isoindol-5-yl]ethyl]cyclohexyl]cyclopropan-1-ol], for which the negative-log IC50 (pIC50) was < 6.00.

Regarding `CN(C)C(=O)C1CCC(F)(CCC2c3c(F)cccc3-c3cncn32)CC1` (stereo not drawn) [Compound 111b, 4-fluoro-4-(2-[6-fluoro-5H-imidazo[4,3-a]isoindol-5-yl]ethyl)-N,N-dimethylcyclohexane-1-carboxamide], the pIC50 was 6.00 to 7.00.

Take `FC1(CCC2c3c(Cl)cccc3-c3cncn32)CCC2(CC1)CC2` (single isomer, unassigned) [Compound 91a, 6-chloro-5-(2-[6-fluorospiro[2.5]octan-6-yl]ethyl)-5H-imidazo[4,3-a]isoindole]: the negative logarithm of the IC50 (pIC50) is < 6.00.

On to `CN(C)C(=O)C1CCC(F)(CCC2c3c(F)cccc3-c3cncn32)CC1` (mixture of isomers) [Compound 111a, 4-fluoro-4-(2-[6-fluoro-5H-imidazo[4,3-a]isoindol-5-yl]ethyl)-N,N-dimethylcyclohexane-1-carboxamide], for which the pIC50 is > 7.00.

On to `OC(CC1CCCCC1)CC1c2ncccc2-c2cncn21` (single isomer, unassigned) [Compound 62d, 1-cyclohexyl-3-[4,6,9-triazatricyclo[6.4.0.0^[2,6]]dodeca-1(8),2,4,9,11-pentaen-7-yl]propan-2-ol], for which the negative logarithm of the IC50 (pIC50) is < 6.00.

On to `OC(CC1c2nc(Cl)ccc2-c2cncn21)C1CCCCC1` (single isomer, unassigned) [Compound 55b, 2-[10-chloro-4,6,9-triazatricyclo[6.4.0.0^[2,6]]dodeca-1(8),2,4,9,11-pentaen-7-yl]-1-cyclohexylethan-1-ol], for which the pIC50 is < 6.00.

Regarding `OC1CCC(C(F)(F)CC2c3c(F)ccc(F)c3-c3cncn32)CC1` (mixture of isomers) [Compound 78b, 4-(2-[6,9-difluoro-5H-imidazo[4,3-a]isoindol-5-yl]-1,1-difluoroethyl)cyclohexan-1-ol], the pIC50 is < 6.00.

With `O=C(C1CCC(F)(CCC2c3ncccc3-c3cncn32)CC1)N1CCCCC1` (mixture of isomers) [Compound 100b, 7-[2-[1-Fluoro-4-[(piperidin-1-yl)carbonyl]cyclohexyl]ethyl]-4,6,9-triazatricyclo[6.4.0.0^[2,6]]dodeca-1(8),2,4,9,11-pentaene], the negative-log IC50 (pIC50) was < 6.00.

Consider `Fc1cccc2c1C(CCC1(F)CCCCC1)n1cncc1-2` (single isomer, unassigned) [Compound 19a, 6-fluoro-5-(2-(1-fluorocyclohexyl)ethyl)-5H-imidazo[5,1-a]isoindole], for which the negative logarithm of the IC50 (pIC50) is < 6.00.

For the compound `NC(=O)CC1CCC(F)(CCC2c3c(Cl)cccc3-c3cncn32)CC1` (single isomer, unassigned) [Compound 113d, 2-[4-[2-[6-chloro-5H-imidazo[4,3-a]isoindol-5-yl]ethyl]-4-fluorocyclohexyl]acetamide], the pIC50 is > 7.00.

Regarding `CC1(C)CCC(C(O)CC2c3nc(F)ccc3-c3cncn32)CC1` (single isomer, unassigned) [Compound 25b, 1-(4,4-dimethylcyclohexyl)-2-[10-fluoro-4,6,9-triazatricyclo[6.4.0.0^[2,6]]dodeca-1(8),2,4,9,11-pentaen-7-yl]ethan-1-ol], the negative-log IC50 (pIC50) is < 6.00.

Take `CC1(C)CCC(C(O)CC2c3nc(F)ccc3-c3cncn32)CC1` (single isomer, unassigned) [Compound 25a, 1-(4,4-dimethylcyclohexyl)-2-[10-fluoro-4,6,9-triazatricyclo[6.4.0.0^[2,6]]dodeca-1(8),2,4,9,11-pentaen-7-yl]ethan-1-ol]: the pIC50 was < 6.00.

For the compound `OC1CCC(F)(CCC2c3cc(F)ncc3-c3cncn32)CC1` (single isomer, unassigned) [Compound 58a, 4-fluoro-4-[2-[10-fluoro-4,6,11-triazatricyclo[6.4.0.0^[2,6]]dodeca-1(8),2,4,9,11-pentaen-7-yl]ethyl]cyclohexan-1-ol], the negative logarithm of the IC50 (pIC50) was < 6.00.

For `Fc1cccc2c1C(CCC1(F)CCCCC1)n1cncc1-2` (single isomer, unassigned) [Compound 19b, 6-fluoro-5-(2-(1-fluorocyclohexyl)ethyl)-5H-imidazo[5,1-a]isoindole], the negative logarithm of the IC50 (pIC50) is > 7.00.

On to `NC(=O)CC1CCC(F)(CCC2c3ccccc3-c3cncn32)CC1` (single isomer, unassigned) [Compound 112a, 2-[4-fluoro-4-[2-[5H-imidazo[4,3-a]isoindol-5-yl]ethyl]cyclohexyl]acetamide], for which the pIC50 was < 6.00.

On to `OC(CC1c2ncccc2-c2cncn21)C1CCC(C2(O)CC2)CC1` (single isomer, unassigned) [Compound 117a, 1-[4-[1-hydroxy-2-[4,6,9-triazatricyclo[6.4.0.0^[2,6]]dodeca-1(8),2,4,9,11-pentaen-7-yl]ethyl]cyclohexyl]cyclopropan-1-ol], for which the negative-log IC50 (pIC50) was < 6.00.

In the case of `OC(CC1c2cc(F)ncc2-c2cncn21)C1CCCCC1` (single isomer, unassigned) [Compound 24c, 1-cyclohexyl-2-[10-fluoro-4,6,11-triazatricyclo[6.4.0.0^[2,6]]dodeca-1(8),2,4,9,11-pentaen-7-yl]ethan-1-ol], the negative logarithm of the IC50 (pIC50) is > 7.00.

Take `OC(CC1c2nccc(F)c2-c2cncn21)C1CCCCC1` (single isomer, unassigned) [Compound 101a, 1-cyclohexyl-2-[12-fluoro-4,6,9-triazatricyclo[6.4.0.0^[2,6]]dodeca-1(8),2,4,9,11-pentaen-7-yl]ethan-1-ol]: the pIC50 is < 6.00.

As to `O=C(C1CCC(F)(CCC2c3c(F)cccc3-c3cncn32)CC1)N1CCCCC1` (mixture of isomers) [Compound 110b], the negative logarithm of the IC50 (pIC50) was 6.00 to 7.00.

For the compound `CC1(C)CCC(CCC2c3ncccc3-c3cncn32)CC1` (stereo not drawn) [Compound 51, 7-[2-(4,4-dimethylcyclohexyl)ethyl]-4,6,9-triazatricyclo[6.4.0.0^[2,6]]dodeca-1(8),2,4,9,11-pentaene], the negative-log IC50 (pIC50) was < 6.00.

Consider `CC(C)(O)C1CCC(F)(CCC2c3c(Cl)cccc3-c3cncn32)CC1` (mixture of isomers) [Compound 107a, 2-[4-(2-[6-chloro-5H-imidazo[4,3-a]isoindol-5-yl]ethyl)-4-fluorocyclohexyl]propan-2-ol], for which the negative logarithm of the IC50 (pIC50) was < 6.00.

On to `OC(CC1CCCCC1)CC1c2ncccc2-c2cncn21` (single isomer, unassigned) [Compound 62a, 1-cyclohexyl-3-[4,6,9-triazatricyclo[6.4.0.0^[2,6]]dodeca-1(8),2,4,9,11-pentaen-7-yl]propan-2-ol], for which the pIC50 is 6.00 to 7.00.

As to `OC(CC1c2nc(Cl)ccc2-c2cncn21)C1CCCCC1` (single isomer, unassigned) [Compound 55d, 2-[10-chloro-4,6,9-triazatricyclo[6.4.0.0^[2,6]]dodeca-1(8),2,4,9,11-pentaen-7-yl]-1-cyclohexylethan-1-ol], the negative-log IC50 (pIC50) is 6.00 to 7.00.

With `OC(CC1c2ncccc2-c2cncn21)C1CCC(F)(F)CC1` (single isomer, unassigned) [Compound 22a, 1-(4,4-difluorocyclohexyl)-2-[4,6,9-triazatricyclo[6.4.0.0^[2,6]]dodeca-1(8),2,4,9,11-pentaen-7-yl]ethan-1-ol], the negative logarithm of the IC50 (pIC50) was 6.00 to 7.00.

Turning to `OC(CC1c2ncccc2-c2cncn21)C1CCOCC1` (single isomer, unassigned) [Compound 92c, 1-(oxan-4-yl)-2-[4,6,9-triazatricyclo[6.4.0.0^[2,6]]dodeca-1(8),2,4,9,11-pentaen-7-yl]ethan-1-ol], the pIC50 was < 6.00.

Turning to `Fc1cccc2c1-c1cncn1C2CCC1(F)CCCCC1` (single isomer, unassigned) [Compound 36a, 9-fluoro-5-(2-(1-fluorocyclohexyl)ethyl)-5H-imidazo[5,1-a]isoindole], the pIC50 was < 6.00.

With `COc1ccc2c(n1)C(CC(N)C1CCC(F)(F)CC1)n1cncc1-2` (single isomer, unassigned) [Compound 120c, 1-(4,4-difluorocyclohexyl)-2-[10-methoxy-4,6,9-triazatricyclo[6.4.0.0^[2,6]]dodeca-1(8),2,4,9,11-pentaen-7-yl]ethan-1-amine], the pIC50 is 6.00 to 7.00.

On to `OC1CCC(F)(CCC2c3ncccc3-c3cncn32)CC1` (single isomer, unassigned) [Compound 8b, 4-fluoro-4-(2-{4,6,9-triazatricyclo[6.4.0.0^[2,6]]dodeca-1(8),2,4,9,11-pentaen-7-yl}ethyl)cyclohexan-1-ol], for which the pIC50 is < 6.00.

For `COc1ccc2c(n1)C(CC(N)C1CCC(F)(F)CC1)n1cncc1-2` (single isomer, unassigned) [Compound 120d, 1-(4,4-difluorocyclohexyl)-2-[10-methoxy-4,6,9-triazatricyclo[6.4.0.0^[2,6]]dodeca-1(8),2,4,9,11-pentaen-7-yl]ethan-1-amine], the pIC50 is < 6.00.

With `OC(CC1c2ncccc2-c2cncn21)C1CCC2(CC1)CC2` (single isomer, unassigned) [Compound 29a, 1-[spiro[2.5]octan-6-yl]-2-[4,6,9-triazatricyclo[6.4.0.0^[2,6]]dodeca-1(8),2,4,9,11-pentaen-7-yl]ethan-1-ol], the negative-log IC50 (pIC50) is 6.00 to 7.00.

Regarding `FC1(CCC2c3ccccc3-c3cncn32)CCCCC1` (single isomer, unassigned) [Compound 1a, 5-(2-(1-fluorocyclohexyl)ethyl)-5H-imidazo[5,1-a]isoindole], the pIC50 was < 6.00.
